The record followed here is PubChem BioAssay (NCI).

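Step 1: Grow cells in 96-well plates. Step 2: Expose to compound for 48 hours at 5 concentrations. Step 3: Interpolate endpoints linearly; if unreached, use highest concentration. TGI marks complete inhibition of growth.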

Some test systems named below: A549 NSCLC; A498 renal; OVCAR-5 ovarian; HT29 colon; RXF 393 renal; SF-295 CNS; HOP-92 NSCLC; UO-31 renal; MALME-3M melanoma; HCT-15 colon; UACC-62 melanoma; K-562 leukemia; MOLT-4 leukemia; KM12 colon; OVCAR-8 ovarian; CAKI-1 renal; NCI/ADR-RES ovarian; T-47D breast; DU-145 prostate.
Holding throughout (assay): NCI-60 cell line screen, 48 h

With `CC1=CC[C@@H](C(C)(C)O)C[C@@H]1O`, the TGI in the experiment on A549 NSCLC, with A498 renal, in the experiment with OVCAR-5 ovarian, in the experiment with HT29 colon, in the experiment on RXF 393 renal and in the experiment on SF-295 CNS was more than 5000 µM each time. In addition, the TGI in the experiment with HOP-92 NSCLC, in the experiment with UO-31 renal, in the experiment with MALME-3M melanoma, with HCT-15 colon, in the experiment on UACC-62 melanoma and in the experiment with K-562 leukemia was more than 5000 µM throughout. Besides, the TGI with MOLT-4 leukemia, with KM12 colon and in the experiment on OVCAR-8 ovarian was more than 5000 µM in each case.
In the case of `[O-][N+]1=C2CCC/C(=N/O)C2(O)C2CCCCC21N1CCOCC1` (centres undefined), the TGI in the experiment on A549 NSCLC, with OVCAR-5 ovarian, in the experiment with HT29 colon, in the experiment with CAKI-1 renal, with RXF 393 renal and in the experiment with NCI/ADR-RES ovarian was more than 100 µM throughout. The TGI in the experiment with SF-295 CNS, in the experiment with UO-31 renal, with MALME-3M melanoma, with HCT-15 colon, in the experiment with T-47D breast and with UACC-62 melanoma was more than 100 µM each time. In addition, the TGI with K-562 leukemia, in the experiment on MOLT-4 leukemia, in the experiment on KM12 colon and with OVCAR-8 ovarian was more than 100 µM in each case.
Turning to `O=C(OCC(OC(=O)c1ccccc1)C1CC(C2(O)CCCCC2)C(=O)O1)c1ccccc1` (centres undefined), the TGI in the experiment on A549 NSCLC, in the experiment on A498 renal, with OVCAR-5 ovarian, with HT29 colon, with CAKI-1 renal and in the experiment with RXF 393 renal was more than 25 µM in each case. Also, the TGI with NCI/ADR-RES ovarian was more than 25 µM; in the experiment on SF-295 CNS, more than 25 µM; in the experiment on UO-31 renal, 3.88 µM; in the experiment on MALME-3M melanoma it was more than 25 µM; with HCT-15 colon, more than 25 µM; with DU-145 prostate it was more than 25 µM. In addition, the TGI was 2.21 µM in the experiment with UACC-62 melanoma; more than 25 µM with K-562 leukemia; 19.1 µM in the experiment on MOLT-4 leukemia; more than 25 µM in the experiment with KM12 colon; more than 25 µM with OVCAR-8 ovarian.
Turning to `CC(=O)Oc1cc(-c2oc3cc(OC(C)=O)c(C4OC(CO)C(O)C(O)C4O)c(OC(C)=O)c3c(=O)c2O)c(OC(C)=O)cc1O` (centres undefined), the TGI in the experiment on A549 NSCLC, with OVCAR-5 ovarian, with HT29 colon, with CAKI-1 renal, in the experiment with RXF 393 renal and in the experiment with NCI/ADR-RES ovarian was more than 100 µM in each case. Further, the TGI with SF-295 CNS, in the experiment with HOP-92 NSCLC, in the experiment on UO-31 renal, with MALME-3M melanoma, in the experiment on HCT-15 colon and with DU-145 prostate was more than 100 µM in each case. Also, the TGI with UACC-62 melanoma, in the experiment on K-562 leukemia, in the experiment on MOLT-4 leukemia, in the experiment on KM12 colon and with OVCAR-8 ovarian was more than 100 µM in each case.
In the case of `COC(=O)c1c2c(cc3c1CC1(C3)Cc3cc4c(c(C(=O)OC)c3C1)CCC4)CCC2`, the TGI with A549 NSCLC, in the experiment with A498 renal, in the experiment with OVCAR-5 ovarian, in the experiment on HT29 colon, with RXF 393 renal and in the experiment with NCI/ADR-RES ovarian was more than 100 µM in each case. Moreover, the TGI was more than 100 µM in the experiment on SF-295 CNS; more than 100 µM with HOP-92 NSCLC; 28.4 µM with UO-31 renal; more than 100 µM in the experiment on MALME-3M melanoma; more than 100 µM in the experiment on T-47D breast; more than 100 µM in the experiment on UACC-62 melanoma. For the same molecule, the TGI in the experiment with K-562 leukemia, in the experiment on MOLT-4 leukemia, in the experiment with KM12 colon and with OVCAR-8 ovarian was more than 100 µM throughout.
As for `O=c1c2cc([N+](=O)[O-])ccc2n2n1CCCCC2`, the TGI in the experiment on A549 NSCLC, in the experiment with A498 renal, in the experiment with OVCAR-5 ovarian, with HT29 colon, in the experiment with CAKI-1 renal and with RXF 393 renal was more than 100 µM each time. The TGI with NCI/ADR-RES ovarian, in the experiment on SF-295 CNS, in the experiment with HOP-92 NSCLC, with UO-31 renal, with MALME-3M melanoma and in the experiment on HCT-15 colon was more than 100 µM throughout. For the same molecule, the TGI in the experiment with DU-145 prostate, in the experiment with UACC-62 melanoma, in the experiment with K-562 leukemia, in the experiment with MOLT-4 leukemia, in the experiment with KM12 colon and in the experiment on OVCAR-8 ovarian was more than 100 µM throughout.
Turning to `O[C@@]12Cc3c([nH]c4ccccc34)[C@@H]3Oc4c(-c5ccccc5)ccc5c4[C@@]31CCN(CC1CC1)[C@@H]2C5`, the TGI worked out at 3.53 µM with A549 NSCLC; 2.79 µM in the experiment with A498 renal; 15.1 µM with OVCAR-5 ovarian; 3.29 µM with HT29 colon; 11.1 µM in the experiment on CAKI-1 renal; 6.58 µM in the experiment on NCI/ADR-RES ovarian. In addition, the TGI with SF-295 CNS amounted to 3.5 µM; in the experiment with HOP-92 NSCLC, 21.4 µM; in the experiment with UO-31 renal it was 3.11 µM; with MALME-3M melanoma, 3.99 µM; with HCT-15 colon, 4.06 µM; in the experiment on T-47D breast, 4.71 µM. In addition, the TGI in the experiment on UACC-62 melanoma stood at 3.32 µM; in the experiment on K-562 leukemia, 7.56 µM; with MOLT-4 leukemia, 11 µM; in the experiment on KM12 colon, 3.35 µM; in the experiment on OVCAR-8 ovarian, 5.01 µM.
With `COc1ccc(/C=C/C(=O)CCN2CCN(CCC(=O)/C=C/c3ccc(OC)cc3)CC2)cc1`, the TGI was 49.5 µM with A549 NSCLC; 16.2 µM in the experiment with A498 renal; 35.3 µM with OVCAR-5 ovarian; 23.8 µM with HT29 colon; 26.3 µM in the experiment with CAKI-1 renal; 17.2 µM in the experiment with RXF 393 renal. Besides, the TGI in the experiment with NCI/ADR-RES ovarian was 96 µM; in the experiment on SF-295 CNS, 20.8 µM; in the experiment on HOP-92 NSCLC, 34.5 µM; with UO-31 renal it was 27.7 µM; in the experiment on MALME-3M melanoma, 35.9 µM; in the experiment with HCT-15 colon, 22.3 µM. Further, the TGI with DU-145 prostate is 71.1 µM; with UACC-62 melanoma it was 27.2 µM; in the experiment with K-562 leukemia it was 37.9 µM; in the experiment on MOLT-4 leukemia, more than 100 µM; in the experiment with KM12 colon, 23 µM; in the experiment on OVCAR-8 ovarian, 42.4 µM.
